Test results taken from the NIST ThermoML archive (doi:10.1021/je060200b).
± gives the expanded uncertainty stated by the source.

Test: xn = mol fraction of the nth substance listed
Conditions: 101 kPa, Liquid; for speed of sound: Pulse-echo method; for mass density: Vibrating tube method

BrCCCCCBr [1,5-dibromopentane] + CCCCCCC
speed of sound (292.38 K, x1 = 1): 1149.5 ± 1.2 m/s
mass density (292.52 K, x1 = 0.1006): 779.97 ± 0.21 kg/m3
mass density (292.52 K, x1 = 0.1994): 875.92 ± 0.28 kg/m3
mass density (292.52 K, x1 = 0.3003): 975.53 ± 0.39 kg/m3
mass density (292.52 K, x1 = 0.4008): 1075.8 ± 0.51 kg/m3
mass density (292.52 K, x1 = 0.5004): 1176.68 ± 0.64 kg/m3
mass density (292.52 K, x1 = 0.5999): 1278.62 ± 0.62 kg/m3
mass density (292.52 K, x1 = 0.6995): 1381.6 ± 0.65 kg/m3
mass density (292.52 K, x1 = 0.8002): 1487.16 ± 0.7 kg/m3
mass density (292.52 K, x1 = 0.899): 1591.59 ± 0.79 kg/m3
mass density (292.52 K, x1 = 1): 1699.54 ± 0.91 kg/m3
speed of sound (292.56 K, x1 = 0.4): 1103.5 ± 0.86 m/s
speed of sound (292.59 K, x1 = 0.5001): 1104.2 ± 0.91 m/s
speed of sound (292.65 K, x1 = 0.2): 1116.5 ± 0.8 m/s
speed of sound (292.68 K, x1 = 0.3001): 1107.2 ± 0.83 m/s
speed of sound (292.73 K, x1 = 0.7999): 1126.3 ± 1.1 m/s
speed of sound (292.75 K, x1 = 0.8998): 1137.3 ± 1.1 m/s
speed of sound (292.76 K, x1 = 0.6): 1108.4 ± 0.96 m/s
speed of sound (292.8 K, x1 = 0.6997): 1116.2 ± 1 m/s
speed of sound (292.83 K, x1 = 0.1): 1131.1 ± 0.79 m/s
mass density (298.05 K, x1 = 0.1006): 775.18 ± 0.21 kg/m3
mass density (298.05 K, x1 = 0.1994): 870.87 ± 0.28 kg/m3
mass density (298.05 K, x1 = 0.3003): 969.84 ± 0.38 kg/m3
mass density (298.05 K, x1 = 0.4008): 1070.23 ± 0.51 kg/m3
mass density (298.05 K, x1 = 0.5004): 1170.91 ± 0.63 kg/m3
mass density (298.05 K, x1 = 0.5999): 1272.47 ± 0.62 kg/m3
mass density (298.05 K, x1 = 0.6995): 1375.26 ± 0.64 kg/m3
mass density (298.05 K, x1 = 0.8002): 1480.47 ± 0.7 kg/m3
mass density (298.05 K, x1 = 0.899): 1584.66 ± 0.79 kg/m3
mass density (298.05 K, x1 = 1): 1691.87 ± 0.91 kg/m3
speed of sound (298.37 K, x1 = 1): 1133 ± 1.2 m/s
speed of sound (298.59 K, x1 = 0.5001): 1084.5 ± 0.89 m/s
speed of sound (298.62 K, x1 = 0.4): 1082.8 ± 0.85 m/s
speed of sound (298.63 K, x1 = 0.2): 1093.8 ± 0.78 m/s
speed of sound (298.67 K, x1 = 0.3001): 1085.7 ± 0.81 m/s
speed of sound (298.73 K, x1 = 0.8998): 1120.2 ± 1.1 m/s
speed of sound (298.76 K, x1 = 0.7999): 1108.6 ± 1.1 m/s
speed of sound (298.77 K, x1 = 0.6): 1089.6 ± 0.94 m/s
speed of sound (298.8 K, x1 = 0.6997): 1098.1 ± 1 m/s
speed of sound (298.83 K, x1 = 0.1): 1106.8 ± 0.76 m/s
mass density (303.06 K, x1 = 0.1006): 770.79 ± 0.21 kg/m3
mass density (303.06 K, x1 = 0.1994): 866 ± 0.28 kg/m3
mass density (303.06 K, x1 = 0.3003): 964.71 ± 0.38 kg/m3
mass density (303.06 K, x1 = 0.4008): 1064.63 ± 0.5 kg/m3
mass density (303.06 K, x1 = 0.5004): 1165.02 ± 0.63 kg/m3
mass density (303.06 K, x1 = 0.5999): 1266.37 ± 0.62 kg/m3
mass density (303.06 K, x1 = 0.6995): 1368.9 ± 0.64 kg/m3
mass density (303.06 K, x1 = 0.8002): 1474.36 ± 0.7 kg/m3
mass density (303.06 K, x1 = 0.899): 1578.04 ± 0.79 kg/m3
mass density (303.06 K, x1 = 1): 1684.89 ± 0.9 kg/m3
speed of sound (303.39 K, x1 = 1): 1119.3 ± 1.2 m/s
speed of sound (303.59 K, x1 = 0.2): 1075.1 ± 0.77 m/s
speed of sound (303.63 K, x1 = 0.3001): 1068 ± 0.8 m/s
speed of sound (303.64 K, x1 = 0.4): 1065.8 ± 0.84 m/s
speed of sound (303.64 K, x1 = 0.5001): 1068.3 ± 0.89 m/s
speed of sound (303.67 K, x1 = 0.8998): 1106.3 ± 1.1 m/s
speed of sound (303.71 K, x1 = 0.7999): 1094.2 ± 1.1 m/s
speed of sound (303.72 K, x1 = 0.6): 1074.2 ± 0.94 m/s
speed of sound (303.78 K, x1 = 0.6997): 1083.1 ± 1 m/s
speed of sound (303.86 K, x1 = 0.1): 1086.5 ± 0.76 m/s
mass density (308.08 K, x1 = 0.1006): 766.31 ± 0.21 kg/m3
mass density (308.08 K, x1 = 0.1994): 861.23 ± 0.28 kg/m3
mass density (308.08 K, x1 = 0.3003): 959.36 ± 0.38 kg/m3
mass density (308.08 K, x1 = 0.4008): 1058.93 ± 0.5 kg/m3
mass density (308.08 K, x1 = 0.5004): 1159.11 ± 0.63 kg/m3
mass density (308.08 K, x1 = 0.5999): 1260.5 ± 0.62 kg/m3
mass density (308.08 K, x1 = 0.6995): 1362.98 ± 0.64 kg/m3
mass density (308.08 K, x1 = 0.8002): 1467.91 ± 0.69 kg/m3
mass density (308.08 K, x1 = 0.899): 1571.77 ± 0.78 kg/m3
mass density (308.08 K, x1 = 1): 1678.03 ± 0.9 kg/m3
speed of sound (308.38 K, x1 = 1): 1105.8 ± 1.2 m/s
speed of sound (308.55 K, x1 = 0.2): 1056.4 ± 0.77 m/s
speed of sound (308.58 K, x1 = 0.4): 1049.1 ± 0.84 m/s
speed of sound (308.58 K, x1 = 0.5001): 1052.4 ± 0.88 m/s
speed of sound (308.67 K, x1 = 0.3001): 1050 ± 0.8 m/s
speed of sound (308.67 K, x1 = 0.8998): 1092.3 ± 1.1 m/s
speed of sound (308.69 K, x1 = 0.6): 1058.9 ± 0.94 m/s
speed of sound (308.7 K, x1 = 0.7999): 1079.8 ± 1.1 m/s
speed of sound (308.82 K, x1 = 0.6997): 1068.1 ± 1 m/s
speed of sound (308.84 K, x1 = 0.1): 1066.7 ± 0.75 m/s
speed of sound (314.36 K, x1 = 1): 1089.7 ± 1.2 m/s
speed of sound (314.52 K, x1 = 0.5001): 1033.4 ± 0.87 m/s
speed of sound (314.54 K, x1 = 0.3001): 1029.3 ± 0.78 m/s
speed of sound (314.61 K, x1 = 0.2): 1033.8 ± 0.75 m/s
mass density (314.66 K, x1 = 0.1006): 760.22 ± 0.21 kg/m3
mass density (314.66 K, x1 = 0.1994): 854.58 ± 0.28 kg/m3
mass density (314.66 K, x1 = 0.3003): 952.58 ± 0.38 kg/m3
mass density (314.66 K, x1 = 0.4008): 1052 ± 0.5 kg/m3
mass density (314.66 K, x1 = 0.5004): 1151.72 ± 0.63 kg/m3
mass density (314.66 K, x1 = 0.5999): 1252.55 ± 0.61 kg/m3
mass density (314.66 K, x1 = 0.6995): 1354.65 ± 0.63 kg/m3
mass density (314.66 K, x1 = 0.8002): 1459.75 ± 0.69 kg/m3
mass density (314.66 K, x1 = 0.899): 1562.81 ± 0.78 kg/m3
mass density (314.66 K, x1 = 1): 1668.75 ± 0.89 kg/m3
speed of sound (314.67 K, x1 = 0.4): 1028.8 ± 0.82 m/s
speed of sound (314.68 K, x1 = 0.7999): 1062.8 ± 1.1 m/s
speed of sound (314.7 K, x1 = 0.8998): 1075.6 ± 1.1 m/s
speed of sound (314.75 K, x1 = 0.6): 1040.2 ± 0.93 m/s
speed of sound (314.82 K, x1 = 0.6997): 1050.3 ± 0.99 m/s
speed of sound (314.83 K, x1 = 0.1): 1042.8 ± 0.72 m/s
